In data set [1] the target is T1, cytosolic nucleotidase II (LpcN-II) (Legionella pneumophila, UniProt Q5ZZB6). In words: biochemical. In kind it is binding.
Data set [2] addresses T1, cytosolic nucleotidase II (LpcN-II). It counts as biochemical.
The target is the same in data set [3]. In kind it is biochemical. This is another data set of the same source.
Data set [4] has as its system O=[N+]([O-])c1ccc(OP(=O)(O)O)cc1. The data set can be described thus: purified protein.
The target in data set [5] is T1, cytosolic nucleotidase II (LpcN-II). It counts as biochemical. This is another data set of the same source.

One may read the Kd as the concentration at which binding is half-saturated. Lower therefore signals tighter binding. What is called kcat/Km is the turnover number divided by the Michaelis constant.

T1 sequence (Q5ZZB6 1-459 limits assumed): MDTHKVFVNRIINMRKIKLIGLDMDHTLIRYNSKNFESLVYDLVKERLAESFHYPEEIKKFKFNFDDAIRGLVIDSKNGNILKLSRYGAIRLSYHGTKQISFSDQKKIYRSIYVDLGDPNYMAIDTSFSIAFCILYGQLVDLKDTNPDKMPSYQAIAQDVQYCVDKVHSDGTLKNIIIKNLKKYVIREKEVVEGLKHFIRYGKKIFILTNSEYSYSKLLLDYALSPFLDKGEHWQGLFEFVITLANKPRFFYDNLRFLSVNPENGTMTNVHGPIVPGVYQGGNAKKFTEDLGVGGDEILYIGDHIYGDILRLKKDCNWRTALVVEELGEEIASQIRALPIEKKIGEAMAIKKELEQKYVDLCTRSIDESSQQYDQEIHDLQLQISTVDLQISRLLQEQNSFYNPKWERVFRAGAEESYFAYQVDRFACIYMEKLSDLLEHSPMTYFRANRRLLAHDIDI

In data set [1], `Nc1nc2c(ncn2[C@@H]2O[C@H](COP(=O)(O)OP(=O)(O)OP(=O)(O)O)[C@@H](O)[C@H]2O)c(=O)[nH]1` [GTP] displayed a Kd of 4.1 ± 0.7 mM. With `O=c1[nH]cnc2c1ncn2[C@@H]1O[C@H](COP(=O)(O)OP(=O)(O)OP(=O)(O)O)[C@@H](O)[C@H]1O` [ITP], the “competitive reduction of GTP activation of pNPP hydrolysis” value in data set [2] is “indicate that IMP and ITP bind to the GTP-binding site”. As for `Nc1nc2c(ncn2[C@@H]2O[C@H](COP(=O)(O)OP(=O)(O)O)[C@@H](O)[C@H]2O)c(=O)[nH]1` [GDP], the “activation of pNPP hydrolysis; competition with GTP” value in data set [3] is reported as “GDP was also found to compete for binding to the GTP binding site”. In the case of “cytosolic nucleotidase II (LpcN-II) (Legionella pneumophila subsp. pneumophila str. Philadelphia 1)”, in data set [4], the K0.5 came to 5.1 ± 0.9 mM and the specificity constant (kcat/Km) worked out at 0.1 M⁻¹ s⁻¹. For `Nc1nc2c(ncn2[C@H]2C[C@H](O)[C@@H](COP(=O)(O)OP(=O)(O)OP(=O)(O)O)O2)c(=O)[nH]1` [dGTP], the “activation of pNPP hydrolysis by purified enzyme” value in data set [5] was “GTP, dGTP, and GDP showed activation of LpcN-II activity”.

The record behind these values is PMC3982195 (The FEBS journal, 2014).
